Laboratory results taken from PMC2810868 (Nature, 2009).

Key:
PYL2 = biological target: T1, PYL2 (Arabidopsis thaliana, UniProt O80992); assay: crystal structure of PYL2-ABA; type: biochemical
T1 sequence (O80992 14-188): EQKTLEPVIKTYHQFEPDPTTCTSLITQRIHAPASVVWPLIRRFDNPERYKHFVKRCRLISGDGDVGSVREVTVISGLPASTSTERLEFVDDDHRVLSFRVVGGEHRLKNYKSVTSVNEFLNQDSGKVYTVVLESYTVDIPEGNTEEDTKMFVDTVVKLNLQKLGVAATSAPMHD
T1 sequence (Q9CAJ0 172-511 partner): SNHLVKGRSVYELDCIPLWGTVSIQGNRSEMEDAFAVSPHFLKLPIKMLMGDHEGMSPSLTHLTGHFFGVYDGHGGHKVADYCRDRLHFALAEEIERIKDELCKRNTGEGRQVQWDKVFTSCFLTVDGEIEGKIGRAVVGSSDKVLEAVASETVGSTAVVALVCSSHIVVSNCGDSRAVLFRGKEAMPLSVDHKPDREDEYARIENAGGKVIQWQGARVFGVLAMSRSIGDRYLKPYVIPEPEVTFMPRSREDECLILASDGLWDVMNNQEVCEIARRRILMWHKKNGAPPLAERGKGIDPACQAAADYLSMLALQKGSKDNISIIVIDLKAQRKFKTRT

PYR1(H115A) = biological target: T2, PYR1(H115A) (Arabidopsis thaliana, UniProt O49686, H115A); assay: 1H-15N HSQC NMR with and without S-ABA; type: binding
T2 sequence (O49686 1-191 H115A): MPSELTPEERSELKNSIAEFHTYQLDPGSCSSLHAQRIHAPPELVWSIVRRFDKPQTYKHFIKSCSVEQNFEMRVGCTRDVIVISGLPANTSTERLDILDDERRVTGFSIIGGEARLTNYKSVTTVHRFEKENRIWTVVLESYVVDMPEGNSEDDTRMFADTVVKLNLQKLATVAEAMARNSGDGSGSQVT

IC50 (PYL2): 150 nM
Structure (SMILES): CC1=CC(=O)CC(C)(C)C1(O)/C=C/C(C)=C\C(=O)O (centres unmarked) [S-ABA]
1H-15N HSQC NMR with and without S-ABA (PYR1(H115A)): ABA binding is unaltered by the H115A mutation in the PYR1 latch.
